Test results from patent US20250340540A1, “Crystal Forms Of HS378 And Preparation Method Therefor” (priority 2022, published 2025).
Where two headings read alike, the source gives them in different places.

Assays:
[1] = type: physicochemical; settings: for Changes of HPLC purity over 10 days: 10 days vs 0 day; for Stability of crystal form and HPLC data: 10 days
Method: The X-ray powder diffraction instrument and test conditions involved in the present disclosure were as follows: X-ray diffraction instrument model MiniFlex600Cu target; operation method: scanning speed 20°/min, scanning step width 0.02°. The liquid phase test conditions involved in the present disclosure were as follows: chromatographic column: Agilent Zorbax SB-18, 150×4.6 mm, 5 μm; mobile phase A: 0.1% phosphoric acid aqueous solution; mobile phase B: acetonitrile; detection wavelength: 205 nm; flow rate: 1.0 ml/min; injection volume: 5 μl; column temperature: […]. The samples of crystal form A obtained in Example 1, the crystal form B obtained in Example 5 of the present disclosure, and the crystal forms 1, 2, 4, and 5 obtained in Preparation Example were placed at 60° C. for 5 days and 10 days, respectively, and subjected to HPLC and XRD detection, respectively.

[2] = Microscope photographs: crystal habit and particle fluidity; type: physicochemical; settings: judged from microscope photographs
From the text: Microscope photographs of the samples of the crystal form A obtained in Example 1, the crystal form B obtained in Example 5 of the present disclosure, and the crystal forms 1, 2, 4, and 5 obtained in Preparation Example are shown in FIGS. 7-12, respectively.

[3] = human, in vivo; cited from earlier work
[4] = 0 Day, before placing at 60° C.

Compound | HPLC purity (%) [1, 4] | HPLC purity (%) ([1]; 60° C., 5 Days) | HPLC purity (%) ([1]; 60° C., 10 Days) | Changes of HPLC purity over 10 days ([1]; 60° C.) | Stability of crystal form and HPLC data [1] | Particle fluidity [2] | Oral plasma concentration [3]
CC(C)(C)[C@H](NC(=O)C(F)(F)F)C(=O)N1C[C@H]2[C@@H]([C@H]1C(=O)N[C@H](C#N)C[C@@H]1CCNC1=O)C2(C)C [Crystal form 1] | 95.34% | 95.34% | 95.31% | −0.03 | more stable than crystal form 2, crystal form 4 and crystal form 5 | poor fluidity | –
CC(C)(C)[C@H](NC(=O)C(F)(F)F)C(=O)N1C[C@H]2[C@@H]([C@H]1C(=O)N[C@H](C#N)C[C@@H]1CCNC1=O)C2(C)C [HS378, (1R, 2S, 5S)-N-{(1S)-1-cyano-2-[(3S)-2-oxopyrrolidin-3-yl]-ethyl}-6,6-dimethyl-3-[3-methyl-N-(trifluoroacetyl)-L-valyl]-3-azabicyclo [3.1.0]hexane-2-carboxamide] | – | – | – | – | – | – | exceeding in vitro antiviral cell efficacy
CC(C)(C)[C@H](NC(=O)C(F)(F)F)C(=O)N1C[C@H]2[C@@H]([C@H]1C(=O)N[C@H](C#N)C[C@@H]1CCNC1=O)C2(C)C [Crystal form B] | 99.57% | 99.56% | 99.54% | −0.03 | more stable than crystal form 2, crystal form 4 and crystal form 5 | good in particle fluidity | –
CC(C)(C)[C@H](NC(=O)C(F)(F)F)C(=O)N1C[C@H]2[C@@H]([C@H]1C(=O)N[C@H](C#N)C[C@@H]1CCNC1=O)C2(C)C [Crystal form 5] | 91.23% | 91.05% | 90.79% | −0.44 | – | poor fluidity | –
CC(C)(C)[C@H](NC(=O)C(F)(F)F)C(=O)N1C[C@H]2[C@@H]([C@H]1C(=O)N[C@H](C#N)C[C@@H]1CCNC1=O)C2(C)C [Crystal form 4] | 93.31% | 93.26% | 93.14% | −0.17 | – | – | –
CC(C)(C)[C@H](NC(=O)C(F)(F)F)C(=O)N1C[C@H]2[C@@H]([C@H]1C(=O)N[C@H](C#N)C[C@@H]1CCNC1=O)C2(C)C [Crystal form A] | 99.86% | 99.86% | 99.85% | −0.01 | more stable than crystal form 2, crystal form 4 and crystal form 5 | good in particle fluidity | –
CC(C)(C)[C@H](NC(=O)C(F)(F)F)C(=O)N1C[C@H]2[C@@H]([C@H]1C(=O)N[C@H](C#N)C[C@@H]1CCNC1=O)C2(C)C [Crystal form 2] | 93.83% | 93.71% | 93.52% | −0.31 | – | poor fluidity | –
